From EP0087750B2, “Amino acid preparations containing glutaminic residues” (Kabi Pharmacia GmbH, priority 1982, dated 1994)
In brackets after ≈: the same amount, converted by molar mass. Values belong to the compound of their own block, whether it stands above or below them. Residues, ends and D or L forms follow the SMILES beside them.

Experiments:
[1] = physchem; format: physicochemical; details: water
From the text: (§1) Es wurde nun erkannt, daß das Glutamin als an der α-Aminogruppe durch α-Aminoacylreste substituiertes Derivat, d. h. in Form der Tri- oder Dipeptide des Glutamins dem Organismus, insbesondere durch Infusionslösungen, zugeführt werden kann, ohne Gefahr der Bildung des toxischen Cyclisierungsprodukts. Diese Di- und Tripeptide des Glutamins mit anderen Aminosäuren, wie Glycin, Alanin, Leucin, Isoleucin oder Valin, sind sehr leicht wasserlöslich, so daß sie gegebenenfalls in relativ hoher Konzentration in den Infusionslösungen angewendet werden können, wobei gleichzeitig dem Organismus auch andere Aminosäuren zugeführt werden, ohne daß dadurch osmotische Problem auftreten. Die Löslichkeit beispielsweise des Gly-Ala-Gln beträgt 680 g/L H₂O, während die freien Aminosäuren eine geringere Löslichkeit besitzen: […]: 225 g/L H₂O; Alanin: 158 g/L H₂O und Glutamin: […] H₂O.

[2] = Solubility in water; format: physicochemical
From the text: as §1

[3] = test system: Hydrolasen in den Geweben des Organismus; details: in vivo, cited from earlier work

Compound: C[C@H](N)C(=O)O [Alanin]
solubility [1]: 158 mg/mL (≈ 1770 mM)

Compound: C[C@H](NC(=O)CN)C(=O)N[C@@H](CCC(N)=O)C(=O)O [Gly-Ala-Gln, Glycyl-L-alanyl-L-glutamin] (H-Gly-Ala-Gln-OH)
Löslichkeit [2]: 680 g/L H₂O

Compound: Glycyl-leucin
Elimination aus dem Plasma ([3]; iv): schnell aus dem Plasma eliminiert
Spaltung durch Hydrolasen in den Geweben [3]: gut gespalten

Second part, the compound after the results:

solubility [1]: 325 mg/mL (≈ 2220 mM)
Compound: NC(=O)CC[C@H](N)C(=O)O [Glutamin]

Löslichkeit [1]: 225 g/L H₂O
Compound: Glycerin
